Experimental data from PubChem BioAssay AID328 (DTP/NCI, 2004).
Where “and” joins values, the source holds several entries; their conditions need not be identical. Equal entries are not always repeated. Inconclusive results and toxic doses are left out. Rule for the calls: active = survival T/C of 150% or more; inactive = T/C below 125% in these data.

Tested on: BDF1 mice, P388 leukemia ip, median survival T/C
Assay: NCI In Vivo Anticancer Drug Screen. Data for tumor model P388 Leukemia (intraperitoneal) in B6D2F1 (BDF1) mice
Details: endpoint: median survival time, higher = longer survival
In short: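 Steps: implant the tumour, treat one group with compound and another with vehicle, record survival, then divide treated by control.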

[1] = dose: 100.0 mg/kg/injection, schedule: Q04DX003 (ip), vehicle: saline with Tween-80
[2] = dose: 200.0 mg/kg/injection, schedule: Q04DX003 (ip), vehicle: saline with Tween-80
[3] = dose: 400.0 mg/kg/injection, schedule: Q04DX003 (ip), vehicle: saline with Tween-80
[4] = dose: 12.5 mg/kg/injection, schedule: Q01DX009 (ip), vehicle: saline with Tween-80
[5] = dose: 25.0 mg/kg/injection, schedule: Q01DX009 (ip), vehicle: saline with Tween-80
[6] = dose: 100.0 mg/kg/injection, schedule: Q01DX009 (ip), vehicle: saline
[7] = dose: 100.0 mg/kg/injection, schedule: Q04DX003 (ip), vehicle: saline sonified
[8] = dose: 200.0 mg/kg/injection, schedule: Q04DX003 (ip), vehicle: saline sonified
[9] = dose: 100.0 mg/kg/injection, schedule: Q01DX009 (ip), vehicle: Klucel (hydroxypropylcellulose) (HPC)
[10] = dose: 100.0 mg/kg/injection, schedule: Q04DX003 (ip), vehicle: Klucel (hydroxypropylcellulose) (HPC)
[11] = dose: 200.0 mg/kg/injection, schedule: Q01DX009 (ip), vehicle: Klucel (hydroxypropylcellulose) (HPC)
[12] = dose: 200.0 mg/kg/injection, schedule: Q04DX003 (ip), vehicle: Klucel (hydroxypropylcellulose) (HPC)
[13] = dose: 400.0 mg/kg/injection, schedule: Q01DX009 (ip), vehicle: Klucel (hydroxypropylcellulose) (HPC)
[14] = dose: 400.0 mg/kg/injection, schedule: Q04DX003 (ip), vehicle: Klucel (hydroxypropylcellulose) (HPC)
[15] = dose: 6.25 mg/kg/injection, schedule: Q04DX003 (ip), vehicle: saline with Tween-80
[16] = dose: 12.5 mg/kg/injection, schedule: Q04DX003 (ip), vehicle: saline with Tween-80
[17] = dose: 25.0 mg/kg/injection, schedule: Q04DX003 (ip), vehicle: saline with Tween-80
[18] = dose: 100.0 mg/kg/injection, schedule: Q01DX001 (ip), vehicle: Klucel (hydroxypropylcellulose) (HPC)
[19] = dose: 200.0 mg/kg/injection, schedule: Q01DX001 (ip), vehicle: Klucel (hydroxypropylcellulose) (HPC)

Measured: T/C

CCN(CC)CCCC(C)NC/C=C/CNC(C)CCCN(CC)CC (stereo not given)
inactive: dose: 0.78 mg/kg/injection, schedule: Q01DX009 (ip), vehicle: water 99 % of control | dose: 1.56 mg/kg/injection, schedule: Q01DX009 (ip), vehicle: water 91 % of control | dose: 3.12 mg/kg/injection, schedule: Q01DX009 (ip), vehicle: water 91 % of control | dose: 12.5 mg/kg/injection, schedule: Q01DX009 (ip), vehicle: water 86 % of control | dose: 25.0 mg/kg/injection, schedule: Q01DX009 (ip), vehicle: water 91 % of control | dose: 50.0 mg/kg/injection, schedule: Q01DX009 (ip), vehicle: water 99 % of control

CN(C)c1ccc(CC2Cc3ccccc3C2=O)cc1 (stereo not given)
inactive: dose: 100.0 mg/kg/injection, schedule: Q01DX009 (ip), vehicle: other 104 % of control | [1] 90 % of control | dose: 200.0 mg/kg/injection, schedule: Q01DX009 (ip), vehicle: other 108 % of control | [2] 100 % of control | [3] 95 % of control

[NH-][n+]1c2c(nc3ccccc31)-c1cccc3cccc-2c13
inactive: dose: 12.5 mg/kg/injection, schedule: Q01DX001 (ip), vehicle: Klucel (hydroxypropylcellulose) (HPC) 111 % of control | dose: 25.0 mg/kg/injection, schedule: Q01DX001 (ip), vehicle: Klucel (hydroxypropylcellulose) (HPC) 100 % of control | dose: 50.0 mg/kg/injection, schedule: Q01DX001 (ip), vehicle: Klucel (hydroxypropylcellulose) (HPC) 100 % of control

CCCCCCCCCCSS(=O)(=O)O
inactive: dose: 25.0 mg/kg/injection, schedule: Q01DX001 (ip), vehicle: other 87 % of control | dose: 50.0 mg/kg/injection, schedule: Q01DX001 (ip), vehicle: other 95 % of control | dose: 100.0 mg/kg/injection, schedule: Q01DX001 (ip), vehicle: other 95 % of control

CC1(C)O[Se](=O)OC1(C)C
inactive: dose: 6.25 mg/kg/injection, schedule: Q04DX003 (ip), vehicle: saline 100 % of control

O=C(O)C1OC1C(=O)O (stereo not given)
inactive: dose: 75.0 mg/kg/injection, schedule: Q01DX009 (ip), vehicle: saline 90 % of control | dose: 150.0 mg/kg/injection, schedule: Q01DX009 (ip), vehicle: saline 100 % of control | dose: 300.0 mg/kg/injection, schedule: Q01DX009 (ip), vehicle: saline 100 % of control

Nc1ccc(Oc2ccc(Cl)cc2)c(Cl)c1
inactive: [1] 100 % of control | [2] 95 % of control | [3] 104 % of control

COC1OC(C)C(O)C(O)[CH]1[Hg][O]C(C)=O (stereo not given)
inactive: dose: 0.18 mg/kg/injection, schedule: Q01DX009 (ip), vehicle: saline 111 % of control | dose: 0.37 mg/kg/injection, schedule: Q01DX009 (ip), vehicle: saline 105 % of control | dose: 0.75 mg/kg/injection, schedule: Q01DX009 (ip), vehicle: saline 94 % of control and 105 % of control | dose: 1.5 mg/kg/injection, schedule: Q01DX009 (ip), vehicle: saline 86 % of control and 111 % of control

C=C(CC(N)=O)C(=O)O (tested in a mixture with another compound)
inactive: dose: 88.0 mg/kg/injection, schedule: Q01DX003 (ip), vehicle: saline 109 % of control and 113 % of control | dose: 177.0 mg/kg/injection, schedule: Q01DX003 (ip), vehicle: saline 109 % of control and 122 % of control | dose: 266.0 mg/kg/injection, schedule: Q01DX003 (ip), vehicle: saline 109 % of control and 122 % of control | dose: 400.0 mg/kg/injection, schedule: Q01DX003 (ip), vehicle: saline 118 % of control and 122 % of control | dose: 600.0 mg/kg/injection, schedule: Q01DX003 (ip), vehicle: saline 118 % of control

CN=S(=O)(OCC1CCC1COS(=O)(=NC)c1ccc(C)cc1)c1ccc(C)cc1 (stereo not given)
inactive: [4] 109 % of control | dose: 12.5 mg/kg/injection, schedule: Q01DX009 (ip), vehicle: saline 93 % of control | [5] 100 % of control | dose: 25.0 mg/kg/injection, schedule: Q01DX009 (ip), vehicle: saline 93 % of control | dose: 50.0 mg/kg/injection, schedule: Q01DX009 (ip), vehicle: saline with Tween-80 90 % of control and 120 % of control | dose: 50.0 mg/kg/injection, schedule: Q01DX009 (ip), vehicle: saline 90 % of control | dose: 100.0 mg/kg/injection, schedule: Q01DX009 (ip), vehicle: saline with Tween-80 107 % of control and 114 % of control | [6] 93 % of control | dose: 200.0 mg/kg/injection, schedule: Q01DX009 (ip), vehicle: saline with Tween-80 116 % of control

COc1ccc(C(=O)NN2C(N)=NC(N)=NC2(C)C)cc1
inactive: dose: 50.0 mg/kg/injection, schedule: Q04DX003 (ip), vehicle: saline sonified 100 % of control | [7] 100 % of control | [8] 105 % of control

COC(=O)C(Br)C(Br)N1C(=O)c2ccccc2C1=O (stereo not given)
inactive: [9] 100 % of control | [10] 104 % of control | [11] 104 % of control | [12] 100 % of control | [13] 108 % of control | [14] 109 % of control

CC(C)CC(CC(C)C)NCC(C)OC(=O)c1ccc(N)cc1 (stereo not given)
inactive: dose: 6.25 mg/kg/injection, schedule: Q01DX009 (ip), vehicle: saline with Tween-80 104 % of control | [15] 107 % of control | [4] 93 % of control | [16] 114 % of control | [5] 104 % of control | [17] 114 % of control | dose: 50.0 mg/kg/injection, schedule: Q04DX003 (ip), vehicle: saline with Tween-80 114 % of control

O=C(COc1cccc(Cl)c1)Nc1cccnc1
inactive: [18] 99 % of control | [19] 99 % of control

CS(=O)(=O)C(=Cc1ccccc1Cl)S(C)(=O)=O
inactive: [6] 104 % of control | dose: 200.0 mg/kg/injection, schedule: Q01DX009 (ip), vehicle: saline 118 % of control | dose: 400.0 mg/kg/injection, schedule: Q01DX009 (ip), vehicle: saline 121 % of control

Cc1cccc2cc3c(ccc4ccccc43)c[n+]12
inactive: dose: 1.0 mg/kg/injection, schedule: Q01DX009 (ip), vehicle: Klucel (hydroxypropylcellulose) (HPC) 109 % of control | dose: 2.0 mg/kg/injection, schedule: Q01DX009 (ip), vehicle: Klucel (hydroxypropylcellulose) (HPC) 100 % of control | dose: 4.0 mg/kg/injection, schedule: Q01DX009 (ip), vehicle: Klucel (hydroxypropylcellulose) (HPC) 100 % of control | dose: 8.0 mg/kg/injection, schedule: Q01DX009 (ip), vehicle: Klucel (hydroxypropylcellulose) (HPC) 113 % of control

COC(=O)c1cc(Cl)cc(C(=O)OC)c1
inactive: [1] 100 % of control | [2] 90 % of control | [3] 95 % of control

COC(=O)c1cc(C)c(Br)c(N)c1
inactive: [9] 105 % of control | [10] 109 % of control | [11] 100 % of control | [12] 104 % of control | [13] 100 % of control | [14] 109 % of control

O=c1c2cccc3cccc(c32)c2nc3ccccc3n12
inactive: dose: 4.0 mg/kg/injection, schedule: Q01DX009 (ip), vehicle: saline with Tween-80 100 % of control | dose: 6.0 mg/kg/injection, schedule: Q01DX009 (ip), vehicle: saline with Tween-80 108 % of control | [15] 87 % of control | [16] 95 % of control | [17] 112 % of control

COC(=O)C12CCc3cc(OC)ccc3C1=CC(=O)C2 (stereo not given)
inactive: [7] 100 % of control | [8] 95 % of control

CCCCCCCCCCCCCCC(F)C(=O)OC (stereo not given)
inactive: dose: 25.0 mg/kg/injection, schedule: Q01DX009 (sc), vehicle: olive oil, sesame oil, peanut oil 95 % of control | dose: 50.0 mg/kg/injection, schedule: Q01DX009 (sc), vehicle: olive oil, sesame oil, peanut oil 86 % of control | dose: 50.0 mg/kg/injection, schedule: Q04DX003 (sc), vehicle: olive oil, sesame oil, peanut oil 91 % of control | dose: 100.0 mg/kg/injection, schedule: Q01DX009 (sc), vehicle: olive oil, sesame oil, peanut oil 100 % of control | dose: 100.0 mg/kg/injection, schedule: Q04DX003 (sc), vehicle: olive oil, sesame oil, peanut oil 91 % of control

O=C(CCCCN1CCc2[nH]c3ccc(F)cc3c2C1)c1ccc(F)cc1
inactive: [18] 116 % of control | [19] 100 % of control
